Experimental data published in patent US20260250325A1, “Antiviral Polypeptide Membrane Fusion Inhibitor, and Preparation Method and Application Thereof” (priority 2025, published 2026).
Where a SMILES comes first, the peptide text is derived from it. The star is where a group is joined. Succinyl(4-O-cholesteryl) = CC(C)CCC[C@@H](C)[C@H]1CC[C@H]2[C@@H]3CC=C4C[C@@H](OC(=O)CCC(=O)*)CC[C@]4(C)[C@H]3CC[C@]12C; X1 = CC(C)CCCC(C)C1CCC2C3CC=C4CC(OC(=O)CCC(=O)*)CCC4(C)C3CCC12C

Legend:
hMPV-N46 (127-172) = molecular target: T1, hMPV-N46 (127-172) (Human metapneumovirus, UniProt Q6WB98); experiment: SPR affinity to hMPV-N46 coupled on CM5 chip; type: binding
T1 construct: hMPV-N46 (127-172)
T1 sequence (Q6WB98 127-172): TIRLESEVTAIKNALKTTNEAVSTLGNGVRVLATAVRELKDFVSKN
Procedure: (§1) hMPV and hPIV were two viruses having a typical Class I fusion protein-F protein. An F protein precursor F0 was cracked into F1 and F2 subunits. […] When the compound flowed through a chip surface, changes in an SPR signal were monitored in real time, binding and dissociation processes were recorded, and a binding rate constant (ka) and a dissociation rate constant (kd) were further obtained through kinetic analysis, thereby calculating an equilibrium dissociation constant (KD=kd/ka).
(§2) A CM5 chip with a catalog number 29149603, an amino coupling reagent kit with a catalog number BR100050, HBS-EP+Buffer (10×), sodium acetate (pH 4.0), and a 10 mM glycine-HCl buffer (pH 2.0) were all purchased from GE Health.
(§3) CM5 chip coupling: Channels 2 and 4 of the CM5 chip were activated for 7 min by using a freshly-prepared mixture of 50 mM Hydroxy succinimide (NHS) and 200 mM 1-(3-Dimethylaminopropyl)-3-ethylcarbodiimide (EDC) according to 1:1; and then, hMPV-N46 or hPIV-N51 was diluted and dissolved with sodium acetate with 4.0 pH to a concentration of 30 μM, with a flow rate of 10 μl/min and time of 600 s. An experimental buffer was HBS-EP+buffer (1×). Finally, the chip was blocked with 1 M ethanolamine. The instrument was set to a temperature of 25° C.
(§4) Affinity detection: the buffer used in the experiment was HBS-EP+buffer (1×), and a multi-cycle dynamic mode was used. Channels 1 and 3 of the chip served as blank reference channels; polypeptides to be detected sequentially flowed through Channels 2 and 4 at concentrations of 0 μM, 0.04 µM, 0.12 µM, 0.37 μM, 1.11 µM, 3.33 µM, 10 µM, and 30 μM; the flow rate was 30 μl/min, binding was performed for 180 s, and dissociation was performed for 120 s. Finally, the chip was regenerated by injecting 10 mM glycine (pH 2.0). The instrument was set to a temperature of 25° C.

hPIV3 C243 virus strain = type: cell-based, hPIV; conditions: LLC-MK2 cells, hPIV3 C243, plaque reduction; read-out: EC50 against hPIV3 virus
Procedure: Rhesus monkey kidney cells (LLC-MK2) were sourced from the ATCC, with a catalog number CCL-7.1. The cells were cultured in a DMEM culture solution in which 10% fetal bovine serum, 1% non-essential amino acids, 1% sodium pyruvate, 1% L-glutamine, 100 U/ml penicillin, and 100 μg/ml streptomycin were added.
An HPIV-3 plaque experiment culture medium consisted of a DMEM culture solution added with 2% fetal bovine serum, 1% non-essential amino acids, 1% sodium pyruvate, 1% L-glutamine, 100 U/ml penicillin, and 100 μg/ml streptomycin.
The hPIV Type 3 (hPIV3 C243) was sourced from the ATCC, with a catalog number VR-93.
This study used the plaque reduction experiment to detect the in-vitro activity of the test sample against the hPIV3 C243 virus strain, and Human Anti-HPIV3 Monoclonal Antibody, clone PIA174 was an experimental system control. The test sample and a system experimental antibody were tested at 8 concentrations in duplicated wells.
The LLC-MK2 cells were digested with trypsin and then diluted to a concentration of 400,000 cells per milliliter by using a cell culture solution containing 2% serum. The diluted cells were added to a 96-well cell test board, with 100 μL per well, corresponding to 40,000 cells per well. The cells were cultured overnight in a 37° C. incubator with 5% CO2.
On the next day, the sample diluted at a fold ratio and an equal volume of virus (approximately 200 PFU per well) were well mixed and incubated at 37° C. in 5% CO2 for 1 hour. Then, the culture solution in the 96-well cell test board was discarded, the sample virus mixed solution (100 μL) was added to the 96-well cell culture plate, and incubated at 37° C. in 5% CO2 for 2 hours. After 2 h, the sample virus mixed solution was discarded, 200 μL of an experiment culture medium containing the test sample with a corresponding concentration was added, and the culture solution contained 0.8% CMC. A final concentration of DMSO in the culture solution was 0.5%. A control antibody was directly added to the experiment culture solution containing 0.8% CMC. A cell control (cells, without compound treatment or viral infection) and a viral control (cell infection virus, without compound treatment) were set. The cells were cultured for 1 day in the 37° C. incubator with 5% CO2.
The cells were fixed with 4% paraformaldehyde, and then permeabilization was performed with 0.5% Triton X-100. After the plate was washed with DPBS, a hPIV specific antibody (1:2000 dilution) was added and incubated at 37° C. for 1.5 h. Then, a secondary antibody (1:500 dilution) was added and incubated at 37° C. for 1 hour. The secondary antibody was discarded, a TrueBlue solution was added, dyeing was performed for approximately 10 minutes; and the plate was washed with running water and then air-dried, and the number of spots in each well was counted by using a microplate imaging counter.
Raw data was used for calculating the antiviral activity of the samples, and a calculation formula was shown as follows.
% inhibition rate=100−(sample value-cell control average value)/(virus control average value-cell control average value)×100
Non-linear fitting analysis was performed on the inhibition rate of the sample by using GraphPad Prism (version 10), so as to calculate an EC50 value for the sample. A fitting formula was log (inhibitor) vs. response-Variable slope (four parameters).

hPIV-N51 (139-189) = molecular target: T2, hPIV-N51 (139-189) (Human parainfluenza 3 virus, UniProt P06828); experiment: SPR affinity to hPIV-N51 coupled on CM5 chip; type: binding
T2 construct: hPIV-N51 (139-189)
T2 sequence (P06828 139-189): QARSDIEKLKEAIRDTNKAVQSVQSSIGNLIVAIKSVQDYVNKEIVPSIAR
Procedure: as §1, §2, §3, §4

Row | Compound | Kd (hMPV-N46 (127-172)) | EC50 (hPIV3 C243 virus strain) | Kd (hPIV-N51 (139-189))
1 | CC[C@H](C)[C@H](NC(=O)[C@H](CCCCN)NC(=O)[C@H](CCCCN)NC(=O)[C@H](CC(C)C)NC(=O)[C@H](CO)NC(=O)[C@H](CCC(=O)O)NC(=O)[C@H](CCC(=O)O)NC(=O)[C@@H](NC(=O)[C@H](CCCCN)NC(=O)[C@H](CCCCN)NC(=O)[C@H](CC(N)=O)NC(=O)[C@@H](NC(=O)[C@H](CCC(=O)O)NC(=O)[C@H](CCC(=O)O)NC(=O)[C@@H](NC(=O)[C@H](CCCCN)NC(=O)[C@H](CCCCN)NC(=O)[C@H](CC(=O)O)NC(=O)[C@H](Cc1ccccc1)NC(=O)[C@H](CCC(=O)O)NC(=O)[C@H](CC(=O)O)NC(=O)[C@H](Cc1c[nH]c2ccccc12)NC(C)=O)[C@@H](C)CC)C(C)C)[C@@H](C)CC)C(=O)N[C@@H](CCC(=O)O)C(=O)N[C@@H](CCC(=O)O)C(=O)N[C@@H](CO)C(=O)N[C@@H](CC(=O)O)C(=O)N[C@@H](CCCCN)C(=O)N[C@@H](CCCCN)C(=O)N[C@@H](CC(C)C)C(=O)N[C@@H](CCC(=O)O)C(=O)N[C@@H](C)C(=O)N[C@@H](C)C(=O)N[C@@H](C)C(=O)N[C@@H](CCCCN)C(=O)N[C@@H](CCCCNC(=O)CCC(=O)O[C@H]1CC[C@@]2(C)C(=CC[C@H]3[C@@H]4CC[C@H]([C@H](C)CCCC(C)C)[C@@]4(C)CC[C@@H]32)C1)C(N)=O [Compound 13] (Ac-WDEFDKKIEEVNKKIEESLKKIEESDKKLEAAAKK(Succinyl(4-O-cholesteryl))-NH2) | 3.21 µM | 0.0356 µM | 2.28 µM
2 | CC[C@H](C)[C@H](NC(=O)[C@H](CCCCN)NC(=O)[C@H](CCCCN)NC(=O)[C@H](CC(C)C)NC(=O)[C@H](CO)NC(=O)[C@H](CCC(=O)O)NC(=O)[C@H](CCC(=O)O)NC(=O)[C@@H](NC(=O)[C@H](CCCCN)NC(=O)[C@H](CCCCN)NC(=O)[C@H](CC(N)=O)NC(=O)[C@@H](NC(=O)[C@H](CCC(=O)O)NC(=O)[C@H](CCC(=O)O)NC(=O)[C@@H](NC(=O)[C@H](CCCCN)NC(=O)[C@H](CCCCN)NC(=O)[C@H](CCCCN)NC(=O)[C@H](CC(=O)O)NC(=O)[C@H](Cc1ccccc1)NC(=O)[C@H](CCC(=O)O)NC(=O)[C@H](CC(=O)O)NC(C)=O)[C@@H](C)CC)C(C)C)[C@@H](C)CC)C(=O)N[C@@H](CCC(=O)O)C(=O)N[C@@H](CCC(=O)O)C(=O)N[C@@H](CO)C(=O)N[C@@H](CC(=O)O)C(=O)N[C@@H](CCCCN)C(=O)N[C@@H](CCCCN)C(=O)N[C@@H](CC(C)C)C(=O)N[C@@H](CCC(=O)O)C(=O)N[C@@H](CCC(=O)O)C(=O)N[C@H](C(=O)NCC(=O)N[C@@H](CO)C(=O)NCC(=O)N[C@@H](CO)C(=O)NCC(=O)N[C@@H](CCCCNC(=O)CCC(=O)O[C@H]1CC[C@@]2(C)C(=CC[C@H]3[C@@H]4CC[C@H]([C@H](C)CCCC(C)C)[C@@]4(C)CC[C@@H]32)C1)C(N)=O)C(C)C [Compound 15] (Ac-DEFDKKKIEEVNKKIEESLKKIEESDKKLEEVGSGSGK(Succinyl(4-O-cholesteryl))-NH2) | 0.0381 µM | 0.0207 µM | 1.39 µM
3 | CC[C@H](C)[C@H](NC(=O)[C@H](CCCCN)NC(=O)[C@H](CCCCN)NC(=O)[C@H](CC(C)C)NC(=O)[C@H](CO)NC(=O)[C@H](CCC(=O)O)NC(=O)[C@H](CCC(=O)O)NC(=O)[C@@H](NC(=O)[C@H](CCCCN)NC(=O)[C@H](CCCCN)NC(=O)[C@H](CC(N)=O)NC(=O)[C@@H](NC(=O)[C@H](CCC(=O)O)NC(=O)[C@H](CCC(=O)O)NC(=O)[C@@H](NC(=O)[C@H](CCCCN)NC(=O)[C@H](CCCCN)NC(=O)[C@H](CC(=O)O)NC(=O)[C@H](Cc1ccccc1)NC(=O)[C@H](CCC(=O)O)NC(=O)[C@H](CC(=O)O)NC(=O)[C@H](CO)NC(C)=O)[C@@H](C)CC)C(C)C)[C@@H](C)CC)C(=O)N[C@@H](CCC(=O)O)C(=O)N[C@@H](CCC(=O)O)C(=O)N[C@@H](CO)C(=O)N[C@@H](CC(=O)O)C(=O)N[C@@H](CCCCN)C(=O)N[C@@H](CCCCN)C(=O)N[C@@H](CC(C)C)C(=O)N[C@@H](CCC(=O)O)C(=O)N[C@@H](C)C(=O)N[C@@H](C)C(=O)N[C@@H](C)C(=O)N[C@@H](CCCCN)C(=O)N[C@@H](CCCCNC(=O)CCC(=O)O[C@H]1CC[C@@]2(C)C(=CC[C@H]3[C@@H]4CC[C@H]([C@H](C)CCCC(C)C)[C@@]4(C)CC[C@@H]32)C1)C(N)=O [Compound 16] (Ac-SDEFDKKIEEVNKKIEESLKKIEESDKKLEAAAKK(Succinyl(4-O-cholesteryl))-NH2) | 3.06 µM | 0.059 µM | 5.4 µM
4 | CC[C@H](C)[C@H](NC(=O)[C@H](CCCCN)NC(=O)[C@H](CCCCN)NC(=O)[C@H](CC(C)C)NC(=O)[C@H](CO)NC(=O)[C@H](CCC(=O)O)NC(=O)[C@H](CCC(=O)O)NC(=O)[C@@H](NC(=O)[C@H](CCCCN)NC(=O)[C@H](CCCCN)NC(=O)[C@H](CC(N)=O)NC(=O)[C@@H](NC(=O)[C@H](CCC(=O)O)NC(=O)[C@H](CCC(=O)O)NC(=O)[C@@H](NC(=O)[C@H](CCCCN)NC(=O)[C@H](CCCCN)NC(=O)[C@H](CC(=O)O)NC(=O)[C@H](Cc1ccccc1)NC(=O)[C@H](CCC(=O)O)NC(=O)[C@H](CC(=O)O)NC(C)=O)[C@@H](C)CC)C(C)C)[C@@H](C)CC)C(=O)N[C@@H](CCC(=O)O)C(=O)N[C@@H](CCC(=O)O)C(=O)N[C@@H](CO)C(=O)N[C@@H](CC(=O)O)C(=O)N[C@@H](CCCCN)C(=O)N[C@@H](CCCCN)C(=O)N[C@@H](CC(C)C)C(=O)N[C@@H](CCC(=O)O)C(=O)N[C@@H](CCC(=O)O)C(=O)N[C@H](C(=O)N[C@@H](CCC(=O)O)C(=O)N[C@@H](C)C(=O)N[C@@H](C)C(=O)N[C@@H](C)C(=O)N[C@@H](CCCCN)C(=O)N[C@@H](CCCCNC(=O)CCC(=O)OC1CCC2(C)C(=CCC3C2CCC2(C)C(C(C)CCCC(C)C)CCC32)C1)C(N)=O)C(C)C (some centres unmarked) [Compound 21] (Ac-DEFDKKIEEVNKKIEESLKKIEESDKKLEEVEAAAKK(X1)-NH2) |  | 0.0213 µM | 
5 | Ac-SLEQVNEKINQSLAFIRKSDEINQSDEEVNKSDELLEAAAKK-NH2 [Compound 50] |  | 0.0348 µM | 
